What was measured:
Format in all cases: cell-based
[1] = test system: Microsporum canis; assay: Antifungal activity in vitro, resazurin growth inhibition: Microsporum canis (B68128)
In short: (§1)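 Broth microdilution: RPMI-1640/L-Gln/2% glucose, MOPS pH 7.0±0.1; 10^3 cfu/well; top concentration 64 μM, 2- or 4-fold steps. Dermatophytes at 27° C., one week or more. Resazurin 0.005% (w/v) added, fluorescence 550/590 nm.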

[2] = test system: Trichophyton rubrum; assay: Antifungal activity in vitro, resazurin growth inhibition: Trichophyton rubrum (B68183)
In short: as §1

[3] = test system: Aspergillus fumigatus; assay: Antifungal activity in vitro, resazurin growth inhibition: Aspergillus fumigatus (B42928)
In short: as §1

[4] = test system: Candida parapsilosis; assay: Antifungal activity in vitro, resazurin growth inhibition: Candida parapsilosis (B66126)
In short: as §1

[5] = test system: Cryptococcus neoformans; assay: Antifungal activity in vitro, resazurin growth inhibition: Cryptococcus neoformans (B66663)
In short: as §1

[6] = test system: Trichophyton mentagrophytes; assay: Antifungal activity in vitro, resazurin growth inhibition: Trichophyton mentagrophytes (B70554)
In short: as §1

[7] = test system: Sporothrix schenkii; assay: Antifungal activity in vitro, resazurin growth inhibition: Sporothrix schenkii (B62482)
In short: as §1

Inf. B: Microsporum canis B68128, pIC50 [1]	Inf. C: Trichophyton rubrum B68183, pIC50 [2]	Inf. E: Aspergillus fumigatus B42928, pIC50 [3]	Inf. D: Candida parapsilosis B66126, pIC50 [4]	Inf. F: Cryptococcus neoformans B66663, pIC50 [5]	Inf. G: Trichophyton mentagrophytes B70554, pIC50 [6]	Inf. A: Sporothrix schenkii B62482, pIC50 [7]	Compound
<4.19	<4.19	5.58	4.19	<4.19	<4.19	5.65	Fc1cc(F)c2c(c1)-n1cccc1C(c1cnc(Cl)c(Cl)c1)=NC2 [Compound 81]
5.42	6.19	<4.19	<4.19	<4.19	5.33	<4.19	Fc1cccc2c1CN=C(c1ccc(C(F)(F)F)nc1)c1cccn1-2 [Compound 90]
5.26	6.16	5.02	<4.19	<4.19	5.63	<4.19	CC(=O)c1ccc(C2=NCc3c(F)cccc3-n3cccc32)cn1 [Compound 93]
<4.49	5.17	<4.49	<4.49	<4.49	4.58	<4.49	Cc1cc(C2=NCc3ccccc3-n3cccc32)ccn1 [Compound 95]
4.80	5.10	4.40	<4.19	<4.19	5.00	<4.19	Cc1cc(C2=NCc3c(Cl)cccc3-n3cccc32)ccn1 [Compound 96]
4.87	5.99	<4.49	<4.49	<4.49	4.83	<4.49	Cc1cc(C2=NCc3c(C)cccc3-n3cccc32)ccn1 [Compound 97]
<4.19	4.47	4.49	5.06	5.03	4.48	4.49	FC(F)(F)c1cc(C2=NCc3ccc(Cl)cc3-n3cccc32)ccn1 [Compound 98]
5.10	4.89	<4.19	<4.19	<4.19	<4.19	<4.19	Cc1ncc(C2=NCc3c(C)cccc3-n3cccc32)cn1 [Compound 99]
4.21	<4.19	<4.19	<4.19	<4.19	<4.19	<4.19	Cc1ncc(C2=NCc3c(Cl)cccc3-n3cccc32)cn1 [Compound 100]
4.56	5.23	<4.19	<4.19	<4.19	5.57	<4.19	FC(F)(F)c1ncc(C2=NCc3ccccc3-n3cccc32)cn1 [Compound 101]
<4.19	4.49	<4.19	<4.19	<4.19	<4.19	<4.19	Cc1cccc2c1CN=C(c1cnc(C(F)(F)F)nc1)c1cccn1-2 [Compound 103]
<4.19	5.91	5.54	<4.19	<4.19	<4.19	<4.19	FC(F)(F)c1ncc(C2=NCc3c(Cl)cc(Cl)cc3-n3cccc32)cn1 [Compound 104]
5.79	6.18	5.05	5.09	5.26	5.51	4.90	Cn1ccc2cc(C3=NCc4c(Cl)cccc4-n4cccc43)ccc21 [Compound 106]
4.98	5.99	<4.49	<4.49	<4.49	5.43	<4.49	Cn1nc2ccc(C3=NCc4c(Cl)cccc4-n4cccc43)cc2n1 [Compound 108]
<4.19	5.70	<4.19	<4.19	4.34	4.37	<4.19	Cn1nc2ccc(C3=NCc4c(Cl)cc(Cl)cc4-n4cccc43)cc2n1 [Compound 109]
5.18	6.02	<4.19	<4.19	5.07	<4.19	<4.19	Cc1ccc2cc(C3=NCc4c(Cl)cccc4-n4cccc43)ccc2n1 [Compound 112]
<4.19	5.86	<4.19	<4.19	<4.19	<4.19	<4.19	Cc1ccc2cc(C3=NCc4c(F)cccc4-n4cccc43)ccc2n1 [Compound 113]
<4.19	5.75	<4.19	<4.19	<4.19	<4.19	<4.19	Cc1ccc2cc(C3=NCc4c(F)cc(F)cc4-n4cccc43)ccc2n1 [Compound 114]
<4.19	4.96	5.61	<4.19	<4.19	<4.19	<4.19	Fc1cc(F)c2oc(C3=NCc4c(Cl)cc(Cl)cc4-n4cccc43)cc2c1 [Compound 129]
4.59	5.54	<4.49	<4.49	<4.49	<4.49	<4.49	Cc1cccc2oc(C3=NCc4c(Cl)cccc4-n4cccc43)cc12 [Compound 132]
<4.19	<4.19	<4.19	<4.19	5.83	<4.19	<4.19	Cc1cccc2oc(C3=NCc4ccc(Cl)cc4-n4cccc43)cc12 [Compound 133]
4.41	5.91	<4.19	<4.19	4.54	<4.19	<4.19	Cc1ccc2oc(C3=NCc4ccc(Cl)cc4-n4cccc43)cc2c1 [Compound 135]
4.41	5.67	<4.19	<4.19	<4.19	<4.19	<4.19	Cc1ccc2oc(C3=NCc4c(Cl)cc(Cl)cc4-n4cccc43)cc2c1 [Compound 136]
4.46	4.40	<4.19	<4.19	<4.19	<4.19	<4.19	Cc1ccc2cc(C3=NCc4c(Cl)cc(Cl)cc4-n4cccc43)oc2c1 [Compound 139]

Source: patent publication US9493468B2, “Antifungal 5,6-dihydro-4H-pyrrolo[1,2-a][1,4]benzo-diazepines and 6H-pyrrolo[1,2-a][1,4]benzodiazepines substituted with heterocyclic derivatives” (Janssen Pharmaceutica NV, priority 2011, dated 2016)
